Here are results for one molecule from US20220409692A1, “Systems Chemico-Pharmacology Drugs and Methods of Use” (The Medical College of Wisconsin, priority 2019, published 2022).

For this assay, the system named is hyperoxic neonatal rat pups. Nature of the assay: Hyperoxia-induced BPD in neonatal rat pups: lung histology, cell counts and morphometrics. In kind it is in vivo, Sprague-Dawley rat. From the text: Since the number of neonatal rat pups per pregnant dam limits the number of experimental conditions that can be compared, we modified our standard experimental design protocol. The first experiment was designed to determine if hyperoxia increased BPD, while the second was designed to determine if inhibiting MPO oxidant production reduced BPD. At least three sets of neonatal pups from three different dams were used for each experiment. Pups were fed ad libitum from nursing dams. Pups were weighed and inspected daily in room air for less than ten minutes. Nursing dams were switched daily to avoid the impact of nutritional status. Experience has taught us that severity of hyperoxia-induced BPD is litter dependent. To minimize litter differences, we determined the effects of hyperoxia vs. normoxia on BPD in neonatal pups by mixing pups from the litters and randomly reallocating pups with nursing dams.
Immunohistochemistry and Immunocytochemistry: After cannulating the trachea with an Instech Solomon (20G) stainless steel feeding tube (Plymouth Meeting, Pa.), the lungs were inflated with 10% neutral buffered formalin at 25 cm-H2O (2.4 kPa) for 1 h. Lungs were removed after the trachea were securely tied with surgical silk to maintain the pressure, and perfusion fixed with an additional aliquot of 10% neutral buffered formalin for 24 h before paraffin embedding. Lung sections (5 μm) were mounted on SuperFrost plus-coated slides (Denville Scientific, Metuchen, N.J.). Slides were deparaffinized and sections stained with hematoxylin and eosin (H&E). Histology images were captured with a mounted digital camera using an Olympus IX 51 microscope and a 10× objective. Inflammatory cells, myeloid cells including neutrophils, monocytes, and macrophages, were stained with MPO antibody (1:200) overnight at 4° C. and HPR-conjugated anti-rabbit antibody (1:1000) at room temperature for one hour then visualized by diaminobenzidine to generate a dark-brown color. Blood vessels were stained with RECA-1 and visualized with horseradish-conjugated secondary antibody and diaminobenzidine. The average of three sections per pup, and five counts per section (15 counts/pup) was used for statistical analysis. Quantified data were obtained and entered into the record using predetermined codes by one of the coauthors who was not involved in taking the images.
Morphometric Analysis: The mean linear intercept (MLI), or chord length, was used as a method to estimate the volume-to-surface ratio of acinar airspaces whereas radial alveolar count (RAC) and secondary septa were investigated to study the complexity of lung structure (21). Ten equally spaced horizontal lines were drawn on each picture, and the number of intercepts through the alveolar wall was counted. MLI was obtained by the number of times the traverses are placed on the lung times the length of the traverse then divided by the sum of all the intercepts. For the RAC, a line from the center of the respiratory tract perpendicular to the nearest connective tissue septum was drawn, and alveoli intercepting with the line were counted. For measurement of secondary septa, elastin was stained with resorcin fuchsin and Van Gieson's solution.
Since the number of neonatal rat pups per pregnant dam limits the number of experimental conditions that can be compared, we modified our standard experimental protocol. The first study was designed to determine if hyperoxia increased BPD and caused a change in proteins of interest. Data from these studies can be found in on-line supplemental data. The second study was designed to determine if inhibiting MPO toxic oxidant production reduced BPD. At least three sets of neonatal pups from three different dams were used for each study. Pups were fed ad libitum from nursing dams. Pups were inspected daily starting on P1 and weighed starting on P3 in room air for less than ten minutes. Nursing dams were switched daily to avoid the impact of oxygen toxicity. […]

Setting [1] is: hyperoxic pups, KYC vs PBS, P10.

Peptide text beside a SMILES is read from it.

On to `CC(=O)N[C@@H](CCCCN)C(=O)N[C@@H](Cc1ccc(O)cc1)C(=O)N[C@@H](CS)C(N)=O` [KYC, N-acetyl lysyltyrosylcysteine amide] (Ac-Lys-Tyr-Cys-NH2), for which the “RAC (radial alveolar count)” value (KYC-treated HOX group, P10, PBS-treated HOX 4.2±0.6) is on record as 6.3±0.4. Also, the secondary septation (KYC-treated HOX group, P10, PBS-treated HOX 5.0±1.3) is on record as 7.8±1.2 /HPF. Besides, the capillary count (KYC-treated HOX group, P10, PBS-treated HOX 5.2±1.0) is reported as 9.7±3.0 /HPF. For the same molecule, under “KYC-treated HOX group, P10, PBS-treated HOX 95.9±9.1”, the “MLI (mean linear intercept)” value stood at 74.1±4.7 μm. Besides, where the note is “hyperoxia (O2>90%) pups, KYC 5 mg/kg twice per day i.p. P2-P10, lungs at P10, PBS 2.0±0.7”, the “MPO-positive myeloid cell count” value was 0.8±0.7 /HPF. Moreover, the “reduction of myeloid cell recruitment (MPO+ myeloid cells)” value (hyperoxic lungs, KYC vs PBS, P10) was “approximately 50%”. Besides, under setting [1], the “decrease of MLI” value is “approximately 22%”, the “increase of RAC” value is on record as “approximately 35%”, the “increase of blood vessel counts” value is on record as roughly 92% and the “increase of secondary septa” value is roughly 55%. Also, the “8-OH-dG immunofluorescence staining (oxidative DNA damage)” value (hyperoxic rat pups, KYC vs PBS) is given as “reduced 8-OH-dG in the nuclei of lung cells”.
